Results: patent publication US20050096347A1, “Beta3-Adrenoreceptor agonists, agonist compositions and methods of using” (Molecular Design International, Inc., priority 1997, published 2005)

Tests used:
rat-β3-AR [1] = target: T1, rat-β3-AR (Rattus norvegicus, UniProt P26255); assay: cAMP accumulation in CHO cells expressing rat β3-AR; type: cell-based; details: for EC50: CHO cells, mean ± SEM (n in parentheses), read-out: pKact (−log EC50) for cAMP accumulation, rat-β3-AR (converted); for Emax: relative to that of (−)-isoproterenol, CHO cells expressing rat-β3-AR, read-out: Emax, maximal cAMP accumulation
T1 construct: expressed in transfected cells; host or cells: CHO cells
T1 sequence (P26255 whole entry): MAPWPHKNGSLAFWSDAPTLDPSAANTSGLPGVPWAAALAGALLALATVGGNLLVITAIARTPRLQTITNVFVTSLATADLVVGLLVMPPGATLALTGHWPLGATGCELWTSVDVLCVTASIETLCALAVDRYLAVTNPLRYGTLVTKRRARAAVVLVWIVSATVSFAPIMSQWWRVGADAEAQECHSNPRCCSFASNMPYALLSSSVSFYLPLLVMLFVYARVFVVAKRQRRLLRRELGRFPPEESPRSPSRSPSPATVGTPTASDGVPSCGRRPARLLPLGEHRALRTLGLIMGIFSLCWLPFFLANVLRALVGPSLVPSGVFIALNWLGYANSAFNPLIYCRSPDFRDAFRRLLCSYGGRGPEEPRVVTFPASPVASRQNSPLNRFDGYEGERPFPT
Procedure: (§1) cAMP Radioimmunoassay (CAMP-RIA Assay). […] The precipitated protein was dissolved in 0.1N NaOH.

[2] = target: T2, Thromboxane A2/Prostaglandin H2 (TP) receptor (Homo sapiens, UniProt P21731); assay: Radioligand competition binding, TP receptor sites in human platelets ([3H]SQ 29,548); details: for pKi ± SEM, Human TP receptors: [3H]SQ 29,548 as radioligand, platelets, N = 4-9; for P.R. (potency ratio), Human TP receptors: relative to cmpd. 1 (TMQ), PR = antilog [pKi(drug) − pKi(TMQ)]
T2 construct: endogenous in cells; host or cells: human platelets (from platelet rich plasma)
T2 sequence (P21731 1-343): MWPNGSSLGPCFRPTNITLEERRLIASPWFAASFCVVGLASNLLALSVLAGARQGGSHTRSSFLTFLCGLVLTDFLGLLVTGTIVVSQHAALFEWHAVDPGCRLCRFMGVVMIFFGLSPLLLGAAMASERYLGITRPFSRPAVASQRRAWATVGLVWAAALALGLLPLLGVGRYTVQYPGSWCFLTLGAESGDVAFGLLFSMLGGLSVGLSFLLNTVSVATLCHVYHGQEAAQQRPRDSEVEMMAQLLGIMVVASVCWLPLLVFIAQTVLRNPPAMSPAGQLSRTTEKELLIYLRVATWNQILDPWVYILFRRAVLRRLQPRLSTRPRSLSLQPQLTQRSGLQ
Procedure: For binding experiments, human platelet rich plasma (PRP) was centrifuged and re-suspended in 50 mM Tris-saline buffer, pH 7.4. […] Filters were placed in plastic scintillation vials containing 10 mL of an emulsion-type scintillation mixture and radioactivity measured by liquid scintillation spectrometry.

rat-β3-AR [3] = target: T1, rat-β3-AR; assay: Binding in CHO cells expressing rat β3-AR; details: mean ± SEM (n in parentheses), read-out: pKi (−log Ki) for binding, rat-β3-AR (converted)
Human β1-AR = Human β1-AR (Homo sapiens, UniProt P08588); assay: cAMP radioimmunoassay (cAMP-RIA), CHO cells expressing human β1-AR; type: cell-based; set-up: expressed in transfected cells; details: percentage of maximal response of R-(−)-isoproterenol (100%)
Sequence of Human β1-AR (P08588 whole entry): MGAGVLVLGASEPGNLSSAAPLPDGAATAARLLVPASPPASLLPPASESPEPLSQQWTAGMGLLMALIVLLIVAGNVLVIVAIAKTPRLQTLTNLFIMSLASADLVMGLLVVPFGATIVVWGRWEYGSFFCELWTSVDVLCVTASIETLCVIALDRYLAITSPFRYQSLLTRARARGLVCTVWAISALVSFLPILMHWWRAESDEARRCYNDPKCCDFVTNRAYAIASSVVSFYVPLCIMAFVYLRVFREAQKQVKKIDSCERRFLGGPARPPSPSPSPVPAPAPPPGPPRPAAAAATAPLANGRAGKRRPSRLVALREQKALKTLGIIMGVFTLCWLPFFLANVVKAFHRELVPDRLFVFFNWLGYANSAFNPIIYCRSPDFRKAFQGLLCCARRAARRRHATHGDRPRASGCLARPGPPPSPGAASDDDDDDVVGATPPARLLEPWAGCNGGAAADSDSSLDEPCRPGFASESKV
Procedure: as §1

Human β3-AR = Human β3-AR (Homo sapiens, UniProt P13945); assay: cAMP radioimmunoassay (cAMP-RIA), CHO cells expressing human β3-AR; type: cell-based; set-up: expressed in transfected cells; details: percentage of maximal response of R-(−)-isoproterenol (100%)
Sequence of Human β3-AR (P13945 whole entry): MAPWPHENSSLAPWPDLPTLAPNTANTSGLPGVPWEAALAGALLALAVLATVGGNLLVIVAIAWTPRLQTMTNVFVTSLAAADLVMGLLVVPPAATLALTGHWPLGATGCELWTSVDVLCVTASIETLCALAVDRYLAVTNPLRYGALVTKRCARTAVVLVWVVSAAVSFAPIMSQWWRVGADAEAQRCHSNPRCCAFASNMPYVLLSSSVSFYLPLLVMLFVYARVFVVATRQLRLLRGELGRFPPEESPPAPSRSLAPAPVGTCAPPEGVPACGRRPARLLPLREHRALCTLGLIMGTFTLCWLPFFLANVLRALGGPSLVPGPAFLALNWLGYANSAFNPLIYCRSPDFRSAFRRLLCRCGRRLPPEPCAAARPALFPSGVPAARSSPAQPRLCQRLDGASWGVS
Procedure: as §1

human β2 Adrenoreceptor = target: T3, human β2 Adrenoreceptor (Homo sapiens, UniProt P07550); assay: Radioligand competition binding, human β2 adrenoreceptor expressed in CHO cells ([125I]ICYP); details: for pKi ± SEM, Human β2 Adrenoreceptor CHO: [125I]ICYP as radioligand, N = 4-9; for P.R. (potency ratio), Human β2 Adrenoreceptor CHO: relative to cmpd. 1 (TMQ), PR = antilog [pKi(drug) − pKi(TMQ)]; for Ki: CHO cells (Table 8), read-out: hβ2 Binding ki
T3 construct: expressed in transfected cells
T3 sequence (P07550 whole entry): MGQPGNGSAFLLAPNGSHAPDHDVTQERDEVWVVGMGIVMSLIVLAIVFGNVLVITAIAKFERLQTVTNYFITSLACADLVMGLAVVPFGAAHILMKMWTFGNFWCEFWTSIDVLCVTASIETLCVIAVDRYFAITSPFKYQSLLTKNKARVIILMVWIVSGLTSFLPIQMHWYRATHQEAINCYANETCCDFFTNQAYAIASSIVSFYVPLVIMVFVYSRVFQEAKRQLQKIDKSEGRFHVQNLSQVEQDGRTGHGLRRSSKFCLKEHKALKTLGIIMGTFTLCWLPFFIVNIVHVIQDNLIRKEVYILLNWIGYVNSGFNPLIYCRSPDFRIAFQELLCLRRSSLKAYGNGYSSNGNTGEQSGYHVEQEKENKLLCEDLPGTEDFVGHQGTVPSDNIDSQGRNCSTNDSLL

β2-AR = β2-AR (Rattus norvegicus, UniProt P10608); assay: Relaxation of carbachol-precontracted isolated rat tracheal strips
Sequence of β2-AR (P10608 whole entry): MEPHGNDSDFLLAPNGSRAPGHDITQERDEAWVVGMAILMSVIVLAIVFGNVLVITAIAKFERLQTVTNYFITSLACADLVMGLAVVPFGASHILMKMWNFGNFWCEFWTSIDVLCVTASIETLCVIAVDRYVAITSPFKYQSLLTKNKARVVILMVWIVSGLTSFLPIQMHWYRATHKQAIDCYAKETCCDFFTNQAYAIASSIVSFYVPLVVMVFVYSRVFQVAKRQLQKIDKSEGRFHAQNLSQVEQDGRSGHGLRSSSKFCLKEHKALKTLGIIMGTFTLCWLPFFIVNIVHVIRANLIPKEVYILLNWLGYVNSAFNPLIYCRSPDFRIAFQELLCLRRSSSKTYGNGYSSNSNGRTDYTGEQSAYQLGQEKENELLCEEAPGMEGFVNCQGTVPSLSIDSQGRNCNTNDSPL
Procedure: (§2) Male Sprague Dawley rats (Harlan Industries, Cumberland, Ind.) housed under a 12 hour light/dark cycle and fed Purina Rodent Laboratory Chow (Ralston Purina., St. Louis, Mo.) and water ad libitum, were used for the studies. […] All tissues were suspended and equilibrated in modified Kreb's buffer in water-jacketed baths at 37° C. Resting tensions of 1 g for right atria, trachea and aorta, and of 200 mg for esophageal smooth muscle were used. All tissue responses were measured on a Grass Polygraph Model 7C with a Grass FT-03C isometric force-displacement transducer.
(§3) Carbachol-precontracted tissues were included as controls through the duration of relaxation studies.

Atypical-β/β3-AR = Atypical-β/β3-AR (Rattus norvegicus, UniProt P26255); assay: Relaxation of carbachol-precontracted rat esophageal smooth muscle
Sequence of Atypical-β/β3-AR (P26255 whole entry): as the sequence (P26255 whole entry) above
Procedure: as §2, §3

β1-AR = β1-AR (Rattus norvegicus, UniProt P18090); assay: Chronotropic responses of spontaneously beating isolated rat right atria
Sequence of β1-AR (P18090 whole entry): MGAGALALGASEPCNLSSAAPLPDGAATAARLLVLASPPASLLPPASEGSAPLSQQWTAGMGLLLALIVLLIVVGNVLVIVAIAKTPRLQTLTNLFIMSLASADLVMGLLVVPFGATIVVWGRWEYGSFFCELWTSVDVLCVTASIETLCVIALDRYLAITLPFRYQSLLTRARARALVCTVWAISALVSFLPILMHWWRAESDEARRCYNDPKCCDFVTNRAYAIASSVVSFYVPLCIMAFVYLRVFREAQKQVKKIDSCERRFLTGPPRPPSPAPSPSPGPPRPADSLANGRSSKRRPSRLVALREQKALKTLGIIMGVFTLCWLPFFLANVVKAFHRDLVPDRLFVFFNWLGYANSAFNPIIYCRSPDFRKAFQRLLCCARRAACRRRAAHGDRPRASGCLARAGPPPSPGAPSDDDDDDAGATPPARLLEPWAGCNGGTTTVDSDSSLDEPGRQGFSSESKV
Procedure: as §2
The tissue was again washed 6-7 times with 10 ml of buffer, followed by repeated washes every 10-15 min.

Human β3 Adrenoreceptors = target: T4, Human β3 Adrenoreceptors (Homo sapiens, UniProt P13945); assay: hβ3 cAMP functional activity in CHO cells expressing human β3 adrenoreceptors (Table 8); type: cell-based; details: for EC50: read-out: hβ3 cAMP EC50(nM) +/−SEM
T4 construct: expressed in transfected cells
T4 sequence (P13945 whole entry): as the sequence (P13945 whole entry) above

human β1 Adrenoreceptor = human β1 Adrenoreceptor (Homo sapiens, UniProt P08588); assay: Radioligand competition binding, human β1 adrenoreceptor expressed in CHO cells ([125I]ICYP)
Sequence of human β1 Adrenoreceptor (P08588 whole entry): as the sequence (P08588 whole entry) above
Procedure: Competitive and comparative binding experiments on β1 Adrenoreceptors, β2 Adrenoreceptors and β3-Adrenoreceptors expressed in CHO cells were performed as described previously. […] CHO cells grown to a confluence in 150-mL flasks were detached into Ham's F-12 medium after treatment with 0.05% trypsin-0.53 mM EDTA solution. The cells were then pelleted and washed three times with Tris-EDTA buffer (50 mM Tris-HCl, 150 mM NaCl, 20 mM EDTA, pH 7.4) and resuspended in the same buffer.
Competition binding experiments were performed in duplicates using these whole cells. […] The final volume in each tube was 0.25 mL. Nonspecific binding (5-30%) was determined in the presence of 1 μM (±)-propranolol. Incubations were carried out for 60 min at 37° C. Binding reactions were terminated by rapid filtration through Whatman GF/B glass fiber filters on a Brandel model 12-R tissue harvester. Filters were washed twice with ice cold Tris-EDTA buffer to remove free ICYP. The filters were dried under tissue harvester vacuum and radioactivity was measured by gamma scintillation spectrometry (Beckman model 8000 gamma counter, Palo Alto, Calif.). Specific binding to β Adrenoreceptor sites in these cells varied from 94 to 100%
Inhibitory concentration-50 (IC50) value of each competing drug was determined graphically from individual plots of percent radioligand bound versus log drug concentration on O-adrenoceptors and human platelets. […] Dissociation constants (Ki) for each competing drug were calculated using the equation: [formula] and the data expressed as pKi (i.e., −log Ki) values.

[4] = maximal response relative to maximal response of (−)-isoproterenol

SMILES	pKi ± SEM, Human TP receptors [2]	Ki (rat-β3-AR [3])	pKi ± SEM, Human β2 Adrenoreceptor CHO (human β2 Adrenoreceptor)	P.R. (potency ratio), Human TP receptors [2]	P.R. (potency ratio), Human β2 Adrenoreceptor CHO (human β2 Adrenoreceptor)	further results
COc1c(I)cc(CC2NCCc3cc(O)c(O)cc32)cc1I (stereo not drawn) [Compound 2, reference compound]	7.33	457 nM	–	–	–	EC50 (rat-β3-AR [1]): 0.398 nM; Emax (rat-β3-AR [1]): 96.9 ± 10.1%
COc1c(I)cc(CC2NCCc3nc(NC(C)=O)sc32)cc1I.O=C(O)/C=C\C(=O)O (stereo not drawn) [Compound 10]	–	–	–	–	–	I.A. ± SEM, Human β1-AR, cAMP-RIA assay (Human β1-AR): <10%; I.A., Human β3-AR, cAMP-RIA assay (Human β3-AR): <10%
Br.CC(=O)Nc1c(I)cc(CC2NCCc3cc(O)c(O)cc32)cc1I (stereo not drawn) [Compound 15, 1-(4-Acetamido-3,5-diiodobenzyl)-6,7-dihydroxy-1,2,3,4-tetrahydroisoquinoline Hydrobromide]	6.45	52.5 nM	8.06	–	–	EC50 (rat-β3-AR [1]): 0.457 nM; Emax (rat-β3-AR [1]): 89.6 ± 6.93%; EC50 (β2-AR): 0.603 nM; I.A. (intrinsic activity), Trachea (β2-AR; [4]): 0.84 ± 0.02; EC50 (Atypical-β/β3-AR): 2.09 nM; I.A. (intrinsic activity), Esophageal Smooth Muscle (Atypical-β/β3-AR) (Atypical-β/β3-AR; [4]): 0.99 ± 0.03; EC50 (β1-AR): 1.1 nM; I.A. (intrinsic activity), Right Atria (β-AR) (β1-AR; [4]): 0.93 ± 0.04
Br.Oc1cc2c(cc1O)C(Cc1cc(I)c(O)c(I)c1)NCC2 (stereo not drawn) [Compound 18, 6,7-Dihydroxy-1-(4-hydroxy-3,5-diiodobenzyl)-1,2,3,4-tetrahydroisoquinoline Hydrobromide]	4.72	–	7.93	–	–	–
Br.Oc1cc2c(cc1O)C(Cc1cc(I)c(I)c(I)c1)NCC2 (stereo not drawn) [Compound 21b, 6,7-Dihydroxy-1-(3,4,5-triiodobenzyl)-1,2,3,4-tetrahydroisoquinoline Hydrobromide]	4.22	–	8.82	0.003	29	–
Cl.Cl.Nc1c(I)cc(CC2NCCc3cc(O)c(O)cc32)cc1I (stereo not drawn) [Compound 21c, 1-(4-Amino-3,5-diiodobenzyl)-6,7-dihydroxy-1,2,3,4-tetrahydroisoquinoline Dihydrochloride]	6.73	724 nM	8.81	0.87	28	fold reduction in TP receptor binding affinity compared to 2 [2]: 3 fold
CC(=O)Nc1ccc(CC2NCCc3cc(O)c(O)cc32)cc1I.I (stereo not drawn) [Compound 26a, 1-(4-Acetamido-3-iodobenzyl)-6,7-dihydroxy-1,2,3,4-tetrahydroisoquinoline Hydroiodide]	5.83	–	8.11	0.11	5.6	fold decrease in TP receptor binding affinity on removal of one iodine (24 vs 21c, 26a vs 15) [2]: 5 fold
I.O=C(Nc1ccc(CC2NCCc3cc(O)c(O)cc32)cc1I)c1ccccc1 (stereo not drawn) [Compound 26b, 1-(4-Benzoylamino-3-iodobenzyl)-6,7-dihydroxy-1,2,3,4-tetrahydroisoquinoline Hydroiodide]	5.27 ± 0.13	–	8.70	0.03	22	–
Cl.Oc1cc2c(cc1O)C(Cc1cc(C(F)(F)F)cc(C(F)(F)F)c1)NCC2 (stereo not drawn) [Compound 27, 1-(3,5-Bis-trifluoromethylbenzyl)-6,7-dihydroxy-1,2,3,4-tetrahydroisoquinoline Hydrochloride]	4.08 ± 0.02	–	5.36	0.002	0.01	–
Oc1cc2c(cc1O)C(Cc1cc(I)cc(I)c1)NCC2 (stereo not drawn) [DemethoxyDITMQ]	–	1580 nM	–	–	–	EC50 (rat-β3-AR [1]): 1.82 nM; Emax (rat-β3-AR [1]): 97.7 ± 5.85%
COc1c(I)cc(CC2NCCc3cc(O)c(O)cc32)cc1I (stereo not drawn) [drawing 80]	–	–	–	–	–	EC50 (Human β3 Adrenoreceptors): < 4 nM; Ki (human β2 Adrenoreceptor): 3.1 nM
COc1c(I)cc(CC2NCCc3cc(O)ccc32)cc1I (stereo not drawn) [drawing 83]	–	–	–	–	–	Ki (human β1 Adrenoreceptor): 278 nM; hβ3 cAMP % Iso +/−SEM (Human β3 Adrenoreceptors): 89 +/− 5 % Iso; EC50 (Human β3 Adrenoreceptors): 33.5 nM; Ki (human β2 Adrenoreceptor): 47 nM
